Data: patent US12162934B2, “Gremlin-1 antagonist for the prevention and treatment of cancer” (UCB BIOPHARMA SRL, priority 2018, dated 2024)

Legend:
Apc^Min mice = assay: Apc^Min mouse polyposis model (survival); type: in vivo; conditions: for median survival: vehicle 192 days
[1] = test system: intestinal epithelial pSMAD1,5 signalling; assay: Western blot of intestinal epithelial pSMAD1,5 in treated Vil1-Grem1 animals; type: in vivo, mouse
Method: Western blotting. Isolation of colon epithelium cells was carried out by incubating a 2 cm long piece of tissue with 30 mM EDTA for 2 h with agitation at 4° C. Pelleted epithelial cells were lysed RIPA lysis buffer with the addition of protease inhibitors (Complete Mini, Roche) and phosphatase inhibitors (PhosSTOP, Roche). All lysates were quantified using the BCA assay (Thermo Scientific), […] was diluted in an appropriate amount of 4× loading dye (Invitrogen) and denatured at 95° C. for 5 minutes. Western blotting was done with the NuPAGE Gel system, (Invitrogen) according to manufacturer's protocol. Briefly, denatured lysates were loaded onto a 4-12% gel and run at 100 V for at least 2 hours. The gels were transferred onto PVDF membrane (Immobilon P, Millipore) in a semi-dry tank (120 mA for at least 2 hours) and blocked by incubating for 1 hour at room temperature in TBS containing 10% milk (Marvel). […] After further washes, the blots were incubated in ECL reagents (GE healthcare) and chemiluminescence was detected by chemiluminescence film (GE Healthcare).
Epithelial BMP activity can be measured by phosphorylation of the SMAD 1,5,8 intracellular signalling transducers.
The aberrant epithelial Grem1 expression in Vil1-Grem1 mice suppressed physiological intestinal BMP pathway activity with reduction in detected pSMAD1,5 protein levels detected by Western blot.

mouse intestinal crypts = assay: Mouse intestinal organoid culture; type: cell-based; conditions: 1 mg/ml antibody added to fully supplemented EGR media
Text: Culture of mouse intestinal crypts. Mouse intestinal crypts were isolated and cultured as described by Sato et al (6). In brief, crypts were isolated, resuspended in Matrigel (BD Biosciences) and plated out in 24-well plates. The basal culture medium (advanced Dulbecco's modified Eagle medium/F12 supplemented with penicillin/streptomycin, 10 mmol/L HEPES, Glutamax, 1×N2, 1×B27 (all from Invitrogen), and 1 mmol/L N-acetylcysteine (Sigma)) was overlaid containing the following growth factors; Epidermal Growth Factor at 50 ng/ml (Life Technologies), Gremlin1 at 100 ng/ml (R and D), R-spondin1 at 500 ng/ml (R and D) [EGR media]. Anti-Grem1 antibody (UCB) was used at a concentration of 1 mg/ml. The media was changed every two days.
A mouse organoid culture was used to assess effects of an anti-GREM1 antibody. Successful intestinal epithelial organoid culture is dependent on media supplementation of exogenous BMP antagonist.
Approximately 60% of crypts formed organoids in media fully supplemented with recombinant epidermal growth factor (E), Grem1 (G) and R-Spondin1, (R) (EGR media). Culture success rate dropped to less than 2% at 7 days in media lacking recombinant Grem1 (ER media).

[2] = molecular target: T1, BMP-2-Gremlin-1 complexes (Homo sapiens, UniProt O60565); assay: SMAD phosphorylation assay: displacement of BMP-2 from Gremlin 1-BMP complexes; type: cell-based; conditions: for Displacement of BMP-2 from Gremlin 1-BMP complexes (SMAD phosphorylation): BMP 2 50 ng/ml
T1 sequence (O60565 25-184): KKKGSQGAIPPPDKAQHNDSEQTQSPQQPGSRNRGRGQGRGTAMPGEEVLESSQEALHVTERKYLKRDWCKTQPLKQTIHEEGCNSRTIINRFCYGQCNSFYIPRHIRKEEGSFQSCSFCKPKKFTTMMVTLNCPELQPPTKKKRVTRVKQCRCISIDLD
Method: Experiments were again performed using lung fibroblasts from idiopathic pulmonary fibrosis patients. rhBMP-2 or rhBMP 4/7 were preincubated with rhGremlin-1 for 1 hour at room temperature. The BMP-2- or BMP4/7-Gremlin-1 complexes were incubated with different concentrations of the anti-Gremlin-1 antibodies overnight at 4° C. Antibody concentrations represent the final concentration on the plate.

[3] = test system: Foxl1, Wnt5A and Wnt2B expression; assay: In situ hybridisation of Foxl1 and Wnt ligands in Vil1-Grem1 villus stroma; type: in vivo, mouse
Method: To investigate the source of Wnt ligand expression in the villus ectopic crypts in antibody treated and untreated Vil1-Grem1 mice (n=4) we used Foxl1 in situ hybridization (ISH) to identify sub-epithelial telocyte cells as described by Shoshkes-Carmel et al. (2018). Foxl1 expression levels were quantified using the HALO image analysis software.
Paraffin blocks were sectioned (thickness=[…]) using DEPC (Sigma) treated H2O and sections were baked for 2 hours at 60° C. Tissue was deparaffinised and treated with RNAscope Hydrogen Peroxide (ACD 322335) for 10 min at room temperature (RT). Antigen retrieval was performed for 15 minutes using RNAscope 1× Target Retrieval Reagents (1:10 ACD 322000) at 100° C. Samples were treated with RNAscope Protease Plus (ACD 322331) for 30 minutes at 40° C. using an HybEZ Hybridization System (ACD). Probes were incubated for 2 h at 40° C. Probes used were as follows: LGR4 (ACD 318321), LGR5 (ACD 312171), FZD5 (ACD 404911), FZD7 (ACD 534101), WNT2B (ACD 405031), WNT5A (ACD 316791), WNT5A-C3 (ACD, 316791-C3) and FOXL1 (ACD 407401). Slides were counter-stained using Haematoxylin […] or DAPI (Fluorescent).
Slides were scanned at 20× magnification using an Aperio CS2 Digital Pathology Scanner (Leica Biosystems). […] Foxl1 expression levels were quantified using the HALO image analysis platform (PerkinElmer) and expressed as % of DAB staining per area. […]

“Ab7326: allosteric inhibitory anti-Gremlin-1 antibody from a naïve human library; CDRs SEQ ID NOS 4 to 9; mouse IgG1 in mouse experiments” gave a median survival (Apc^Min mice; early stage treatment (42 days), 30 mg/kg weekly) of 424.5 days, a median survival (Apc^Min mice; established polyposis, 30 mg/kg weekly from 4 months) of 264.5 days and a median survival (Apc^Min mice; late-stage treatment (120 days), 30 mg/kg weekly) of 261 days. The “Survival / polyp development” value (Apc^Min mice; long term treatment initiated at 6 weeks of age) was “prolonged survival”, the “Restoration of intestinal epithelial pSMAD1,5 signalling” value ([1]; 10 mg/kg weekly subcutaneous) was “not” and the “Restoration of intestinal epithelial pSMAD1,5 signalling” value ([1]; 30 mg/kg weekly subcutaneous) was “able to restore”. For the same substance, the “Intestinal organoid culture success” value (mouse intestinal crypts) was “prevented successful intestinal organoid culture”, the “Displacement of BMP-2 from Gremlin 1-BMP complexes (SMAD phosphorylation)” value (from here on “Displacement … (SMAD phosphorylation)”) ([2]; antibody 0.63 μg/ml) was 97.0% and the “Displacement … (SMAD phosphorylation)” value ([2]; antibody 1.27 μg/ml) was 102.8%. For the same substance, the “Displacement … (SMAD phosphorylation)” value ([2]; antibody 2.55 μg/ml) was 103.2%, the “Displacement … (SMAD phosphorylation)” value ([2]; antibody 5.1 μg/ml) was 100.3% and the “Displacement … (SMAD phosphorylation)” value ([2]; antibody 10.2 μg/ml) was 103.8%. For the same substance, the “Displacement … (SMAD phosphorylation)” value ([2]; antibody 20.3 μg/ml) was 99.4%, the “Displacement … (SMAD phosphorylation)” value ([2]; antibody 40.6 μg/ml) was 101.5% and the “Displacement … (SMAD phosphorylation)” value ([2]; antibody 81.3 μg/ml) was 103.7%. The “Displacement of already complexed BMP from Gremlin 1-BMP complexes” value ([2]; BMP-2 or BMP4/7, at much lower concentrations than comparison antibody 2484) was “can displace already complexed BMP-2 or BMP4/7”, the “Stromal Wnt ligand (5A and 2B) expression (ISH)” value ([3]; antibody-treated Vil1-Grem1 mice) was “abrogated Wnt ligand expression” and the “Villus stromal Foxl1 expression (ISH)” value ([3]; antibody-treated Vil1-Grem1 vs WT p=0.4864) was “restored Foxl1 expression levels”.
